Where two headings read alike, the source gives them in different places.
Tests used:
ec302 TEM-10 = test: Aztreonam potentiation (MPC@4), strain ec302 TEM-10; details: minimum BLI concentration inhibiting growth with aztreonam 4 μg/mL; tested up to 40 μg/mL
KP1004 KPC-2 [1] = test: Aztreonam potentiation (MPC@4), strain KP1004 KPC-2; details: minimum BLI concentration inhibiting growth with aztreonam 4 μg/mL; tested up to 40 μg/mL
KP1009 CTX-M-15 = test: Aztreonam potentiation (MPC@4), strain KP1009 CTX-M-15; details: minimum BLI concentration inhibiting growth with aztreonam 4 μg/mL; tested up to 40 μg/mL
ECL1002 = test: Aztreonam potentiation (MPC@4), strain ECL1002; details: minimum BLI concentration inhibiting growth with aztreonam 4 μg/mL; tested up to 40 μg/mL
KP1010 SHV-12 = test: Aztreonam potentiation (MPC@4), strain KP1010 SHV-12; details: minimum BLI concentration inhibiting growth with aztreonam 4 μg/mL; tested up to 40 μg/mL
[2] = target: purified class A, C and D enzymes (β-lactamases) (Klebsiella pneumoniae, UniProt Q6XEC0); test: biochemical; assay type: biochemical; details: purified OXA-48; nitrocefin (NCF) as reporter substrate
[3] = target: purified class A, C and D enzymes (β-lactamases) (Enterobacter cloacae, UniProt P05364); test: biochemical; assay type: biochemical
[4] = target: T1, purified class A, C and D enzymes (β-lactamases) (Pseudomonas aeruginosa, UniProt P24735); test: biochemical; assay type: biochemical
T1 construct: rows headed: Ki (Pa-AmpC, NCF), uM; other: purified Pa-AmpC; nitrocefin (NCF) as reporter substrate

[5] = target: purified class A, C and D enzymes (β-lactamases) (Klebsiella pneumoniae, UniProt Q9F663); test: biochemical; assay type: biochemical; details: purified KPC-2; nitrocefin (NCF) as reporter substrate
[6] = target: T2, purified class A, C and D enzymes (β-lactamases) (Acinetobacter baumannii, UniProt Q9L4P2); test: biochemical; assay type: biochemical; details: purified OXA-23; nitrocefin (NCF) as reporter substrate
T2 construct: rows headed: Ki (OXA-23, NCF), uM; other: purified OXA-23; nitrocefin (NCF) as reporter substrate

[7] = target: purified class A, C and D enzymes (β-lactamases) (Escherichia coli, UniProt Q9L5C7); test: biochemical; assay type: biochemical; details: purified CTX-M-14; nitrocefin (NCF) as reporter substrate
ec308 SHV-5 = test: Aztreonam potentiation (MPC@4), strain ec308 SHV-5; details: minimum BLI concentration inhibiting growth with aztreonam 4 μg/mL; tested up to 40 μg/mL
KP1086 OXA-48 = test: Biapenem potentiation (MPC@1), strain KP1086 OXA-48; assay type: cell-based; details: minimum BLI concentration inhibiting growth with biapenem 1 μg/mL; tested up to 40 μg/mL
Experimental: (§1) Biapenem was present in the test medium at 1 μg/mL. […] Table 3 summarizes the BLI potency of biapenem potentiation (MPC@1) for two strains overexpressing class A (KPC) and class D (OXA-48) carbapenemases. Biapenem MIC for each strain is also shown.

KP1004 KPC-2 [8] = test: Biapenem potentiation (MPC@1), strain KP1004 KPC-2; assay type: cell-based; details: minimum BLI concentration inhibiting growth with biapenem 1 μg/mL; tested up to 40 μg/mL
Experimental: as §1

AB1054 OXA-23 = test: Meropenem potentiation (MPC@8), strain AB1054 OXA-23; assay type: cell-based, Acinetobacter baumannii; details: minimum BLI concentration inhibiting growth with meropenem 8 μg/mL; tested up to 20 μg/mL
KP1005 CTX-M-14 = test: Tigemonam potentiation (MPC@4), strain KP1005 CTX-M-14; details: minimum BLI concentration inhibiting growth with tigemonam 4 μg/mL; tested up to 40 μg/mL
AB1053 OXA-72 = test: Meropenem potentiation (MPC@8), strain AB1053 OXA-72; assay type: cell-based, Acinetobacter baumannii; details: minimum BLI concentration inhibiting growth with meropenem 8 μg/mL; tested up to 20 μg/mL
EC1010 CMY-6 = test: Aztreonam potentiation (MPC@4), strain EC1010 CMY-6; details: minimum BLI concentration inhibiting growth with aztreonam 4 μg/mL; tested up to 40 μg/mL
[9] = purified P99, nitrocefin (NCF) as reporter substrate
[10] = purified Pa-AmpC, nitrocefin (NCF) as reporter substrate, read-out: Ki (Pa-AmpC, NCF)

purified class A, C and D enzymes (β-lactamases) (Enterobacter cloacae, UniProt P05364), sequence (P05364 21-381): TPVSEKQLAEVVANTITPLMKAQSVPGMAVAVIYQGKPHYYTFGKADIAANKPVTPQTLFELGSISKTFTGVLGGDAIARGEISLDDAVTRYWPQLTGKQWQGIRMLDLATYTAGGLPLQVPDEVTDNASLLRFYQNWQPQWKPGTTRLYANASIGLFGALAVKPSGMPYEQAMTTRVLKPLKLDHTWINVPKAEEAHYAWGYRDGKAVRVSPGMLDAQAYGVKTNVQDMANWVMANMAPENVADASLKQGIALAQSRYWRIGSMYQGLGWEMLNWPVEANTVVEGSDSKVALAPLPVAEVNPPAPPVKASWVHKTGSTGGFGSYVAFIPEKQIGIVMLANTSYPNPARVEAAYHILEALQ
T2 sequence (Q9L4P2 whole entry): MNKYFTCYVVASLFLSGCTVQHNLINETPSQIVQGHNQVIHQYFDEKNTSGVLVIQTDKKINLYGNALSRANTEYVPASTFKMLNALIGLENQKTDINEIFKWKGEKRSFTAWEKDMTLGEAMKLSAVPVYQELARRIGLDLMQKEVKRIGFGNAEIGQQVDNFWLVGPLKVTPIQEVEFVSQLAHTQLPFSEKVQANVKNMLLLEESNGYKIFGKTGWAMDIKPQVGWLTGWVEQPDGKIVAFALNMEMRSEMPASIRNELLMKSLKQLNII
T1 sequence (P24735 whole entry): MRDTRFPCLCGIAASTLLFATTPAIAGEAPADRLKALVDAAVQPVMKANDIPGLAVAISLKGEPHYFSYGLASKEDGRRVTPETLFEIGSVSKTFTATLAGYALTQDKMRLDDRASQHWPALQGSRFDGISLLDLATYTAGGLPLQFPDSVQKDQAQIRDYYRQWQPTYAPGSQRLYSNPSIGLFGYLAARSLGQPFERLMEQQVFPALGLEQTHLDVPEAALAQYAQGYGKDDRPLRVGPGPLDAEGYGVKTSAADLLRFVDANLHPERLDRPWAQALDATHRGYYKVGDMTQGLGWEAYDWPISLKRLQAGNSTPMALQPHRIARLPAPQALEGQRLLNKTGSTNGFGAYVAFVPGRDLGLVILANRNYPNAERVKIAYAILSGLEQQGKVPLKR
purified class A, C and D enzymes (β-lactamases) (Escherichia coli, UniProt Q9L5C7), sequence (Q9L5C7 entry or part of it): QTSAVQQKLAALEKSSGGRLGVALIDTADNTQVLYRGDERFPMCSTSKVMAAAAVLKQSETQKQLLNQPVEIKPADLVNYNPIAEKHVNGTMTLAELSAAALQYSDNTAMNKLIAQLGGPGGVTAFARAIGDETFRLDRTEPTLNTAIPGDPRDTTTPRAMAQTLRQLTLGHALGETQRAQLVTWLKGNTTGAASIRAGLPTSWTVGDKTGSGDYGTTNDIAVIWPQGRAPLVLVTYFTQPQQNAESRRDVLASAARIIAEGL

Structure (SMILES)	AZT MPC4 TEM-10 ec302 (ec302 TEM-10)	AZT MPC4 KPC-2 KP1004 (KP1004 KPC-2 [1])	AZT MPC4 CTX-M-15 KP1009 (KP1009 CTX-M-15)	AZT MPC4 ECL1002 (ECL1002)	AZT MPC4 SHV-12 KP1010 (KP1010 SHV-12)	Ki (OXA-48, NCF), uM [2]	Ki (P99, NCF), uM [3, 9]	Ki [4, 10] [nM]	Ki (KPC-2, NCF), uM [5]	Ki [6] [nM]	Ki (CTX-M-14, NCF), uM [7]	AZT MPC4 SHV-5 ec308 (ec308 SHV-5)	BPM MPC1 OXA-48 KP1086 (KP1086 OXA-48)	BPM MPC1 KP1004 KPC-2 (KP1004 KPC-2 [8])	MPM MPC8 AB1054 OXA-23 (AB1054 OXA-23)	TIG MPC4 CTX-M-14 KP1005 (KP1005 CTX-M-14)	MPM MPC8 AB1053 OXA-72 (AB1053 OXA-72)	AZT MPC4 CMY-6 EC1010 (EC1010 CMY-6)	Ki (P99, NCF), uM [3]	Ki [4] [nM]
COc1c(Cl)cc2c(c1C(=O)O)OB(O)CC2 [Compound 41, 6-Chloro-2-hydroxy-7-methoxy-3,4-dihydro-1,2-benzoxaborinine-8-carboxylic acid]	X (X = MPC@4 ≤ 5 μg/mL)	X (X = MPC@4 ≤ 5 μg/mL)	X (X = MPC@4 ≤ 5 μg/mL)	X (X = MPC@4 ≤ 5 μg/mL)	X (X = MPC@4 ≤ 5 μg/mL)	X (X = Ki ≤ 0.1 μM)	X (X = Ki ≤ 0.1 μM)	< 100	X (X = Ki ≤ 0.1 μM)	< 100	X (X = Ki ≤ 0.1 μM)	X (X = MPC@4 ≤ 5 μg/mL)	X (X = MPC@1 ≤ 5 μg/mL)	X (X = MPC@1 ≤ 5 μg/mL)	X (X = MPC@1 ≤ 5 μg/mL)	Y (Y = 5 μg/mL < MPC@4 ≤ 20 μg/mL)	X (X = MPC@1 ≤ 5 μg/mL)	X (X = MPC@4 ≤ 5 μg/mL)		
O=C([O-])c1c(OCCF)ccc2c1O[B-](O)(O)CC2.[Na+].[Na+] [Compound 43, Disodium; 8-(2-fluoroethoxy)-4,4-dihydroxy-5-oxa-4-boranuidabicyclo[4.4.0]deca-1(6),7,9-triene-7-carboxylate]	X (X = MPC@4 ≤ 5 μg/mL)	X (X = MPC@4 ≤ 5 μg/mL)	X (X = MPC@4 ≤ 5 μg/mL)	X (X = MPC@4 ≤ 5 μg/mL)	X (X = MPC@4 ≤ 5 μg/mL)	X (X = Ki ≤ 0.1 μM)			X (X = Ki ≤ 0.1 μM)	< 100	X (X = Ki ≤ 0.1 μM)	X (X = MPC@4 ≤ 5 μg/mL)	X (X = MPC@1 ≤ 5 μg/mL)	X (X = MPC@1 ≤ 5 μg/mL)	X (X = MPC@1 ≤ 5 μg/mL)	X (X = MPC@4 ≤ 5 μg/mL)	X (X = MPC@1 ≤ 5 μg/mL)	X (X = MPC@4 ≤ 5 μg/mL)	X (key: X = Ki ≤ 0.1 μM; Y = 0.1 μM < Ki ≤ 1 μM; Z = Ki > 1 μM)	< 100
CS(=O)(=O)c1ccc2c(c1C(=O)O)OB(O)CC2 [Compound 39, 2-Hydroxy-7-methylsulfonyl-3,4-dihydro-1,2-benzoxaborinine-8-carboxylic acid]	X (X = MPC@4 ≤ 5 μg/mL)	X (X = MPC@4 ≤ 5 μg/mL)	X (X = MPC@4 ≤ 5 μg/mL)	X (X = MPC@4 ≤ 5 μg/mL)	X (X = MPC@4 ≤ 5 μg/mL)	X (X = Ki ≤ 0.1 μM)	X (X = Ki ≤ 0.1 μM)	< 100	X (X = Ki ≤ 0.1 μM)	< 100	X (X = Ki ≤ 0.1 μM)	X (X = MPC@4 ≤ 5 μg/mL)	X (X = MPC@1 ≤ 5 μg/mL)	X (X = MPC@1 ≤ 5 μg/mL)	X (X = MPC@1 ≤ 5 μg/mL)	Y (Y = 5 μg/mL < MPC@4 ≤ 20 μg/mL)	X (X = MPC@1 ≤ 5 μg/mL)	X (X = MPC@4 ≤ 5 μg/mL)		
